We go through 4 molecules from US7205410B2, “4-(aminomethyl)-piperidine benzamides for treating gastrointestinal disorders” (Janssen Pharmaceutica, N.V., priority 1998, dated 2007).

One data set concerns the target T1, 5HT4 (Rattus norvegicus, UniProt Q62758).
T1 construct: 5HT4 Antagonism in Rat Oesophageal Tunica Muscularis Mucosae; from tissue; host or cells: rat oesophageal tunica muscularis mucosae
As to the kind of experiment: 5HT4 antagonism in rat oesophageal tunica muscularis mucosae. The class given is cell-based. The note with it: 5HT4 antagonistic data, isolated rat oesophageal tunica muscularis mucosae, method of Baxter et al. The protocol:
5HT4 Antagonism in Rat Oesophageal Tunica Muscularis Mucosae
The 5HT4 antagonistic potence of the present compounds was measured as described in Baxter G. S. et. al, Naunyn-Schmiedeberg's Arch. Pharmacol., 343, 439-446 ([…]).
The pA2 value is calculated as follows: [formula]

T1 sequence (Q62758 whole entry): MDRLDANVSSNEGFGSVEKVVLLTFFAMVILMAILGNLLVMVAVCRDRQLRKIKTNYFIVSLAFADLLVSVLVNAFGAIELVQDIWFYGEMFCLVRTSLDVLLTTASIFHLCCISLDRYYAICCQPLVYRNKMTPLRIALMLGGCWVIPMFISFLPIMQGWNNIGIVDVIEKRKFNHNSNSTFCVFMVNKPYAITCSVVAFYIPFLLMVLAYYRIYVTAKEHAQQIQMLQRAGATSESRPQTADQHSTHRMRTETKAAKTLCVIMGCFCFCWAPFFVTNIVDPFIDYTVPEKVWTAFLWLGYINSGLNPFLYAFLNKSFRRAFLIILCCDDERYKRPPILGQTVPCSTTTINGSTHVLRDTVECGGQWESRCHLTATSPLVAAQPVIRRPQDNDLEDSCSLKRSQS

The molecule `CCCCN1CC[C@@H](CNC(=O)c2cc(Cl)cc3c2OCCO3)[C@H](O)C1` (racemic) [Compound 64, (±)-(trans)-N-[(1-butyl-3-hydroxy-4-piperidinyl)methyl]-7-chloro-2,3-dihydro-1,4-benzodioxin-5-carboxamide] had a melting point of 112 °C. Also, the Kb on 5HT4 (read-out: pA2 (converted)) is 0.1 nM.
With `O=C(NCC1CCN(CCCOc2ccc(F)cc2)CC1O)c1cc(Cl)cc2c1OCC2` (centres unmarked) [Compound 14], the pA2 at 5HT4 came to 9.2.
The same measure, in the same setting: in the case of `CCCCN1CCC(O)(CNC(=O)c2cc(Cl)cc3c2OCCCO3)CC1.O=C(O)C(=O)O` [Compound 171] it was under 8; in that of `Cl.O=C(O)CCCN1CCC(CNC(=O)c2cc(Cl)cc3c2OCCC3)C(O)C1` (centres unmarked) [Compound 54], 9.8.
